According to the supplement of paper PMC4862054:

What was measured:
Experiment in all cases: normalised viability (% of control), CellTiter-Blue; higher = more viable cells (about 100 = DMSO control)
Settings in all cases: incubation time: 72 h
HCC1599 = test system: HCC1599
Method in brief: (§1)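 The reported figure is normalised viability at a single listed concentration of the series. Breast cancer cell lines (20 µl suspension) went onto 384-well plates holding compound in 5 µl medium for 72 h. CellTiter-Blue (2.5 µl, 2 h, 37 °C) was read by fluorescence at 560/590 nm, and each plate was scaled to vehicle at 100 and a positive kill control at 0.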

Hs578T = test system: Hs578T
Method in brief: as §1

HCC1937 = test system: HCC1937
Method in brief: as §1

CAL-148 = test system: CAL-148
Method in brief: as §1

MDA-MB-468 = test system: MDA-MB-468
Method in brief: as §1

HDQ-P1 = test system: HDQ-P1
Method in brief: as §1

CAL-85-1 = test system: CAL-85-1
Method in brief: as §1

MDA-MB-436 = test system: MDA-MB-436
Method in brief: as §1

BT-549 = test system: BT-549
Method in brief: as §1

MDA-MB-453 = test system: MDA-MB-453
Method in brief: as §1

SK-BR-3 = test system: SK-BR-3
Method in brief: as §1

DU-4475 = test system: DU-4475
Method in brief: as §1

HCC1143 = test system: HCC1143
Method in brief: as §1

CAL-51 = test system: CAL-51
Method in brief: as §1

MFM-223 = test system: MFM-223
Method in brief: as §1

CNC(=O)c1cc(Oc2ccc(NC(=O)Nc3ccc(Cl)c(C(F)(F)F)c3)c(F)c2)ccn1 [Regorafenib]
normalised viability [%]
Settings | 3 nM | 10 nM | 30 nM | 100 nM | 1000 nM | 10000 nM
BT-549 | – | 98.8 | – | – | 102 | 37.4
CAL-51 | 106 | – | 106 | 104 | – | –
CAL-85-1 | 84.7 | – | 89.1 | 88 | – | –
CAL-148 | 88 | – | 90.2 | 95.3 | – | –
DU-4475 | 114 | – | 100 | 120 | – | –
HCC1143 | – | 76.8 | – | – | 77.8 | 75.4
HCC1599 | – | 100 | – | – | 107 | 56.3
HCC1937 | – | 94.9 | – | – | 90.3 | 35.1
HDQ-P1 | 101 | – | 109 | 100 | – | –
Hs578T | – | 96.4 | – | – | 90.7 | 38.3
MDA-MB-436 | – | 115 | – | – | 102 | 65.2
MDA-MB-453 | 102 | – | 109 | 101 | – | –
MDA-MB-468 | – | 111 | – | – | 116 | 34.5
MFM-223 | – | 107 | – | – | 57.1 | 31.2
SK-BR-3 | – | 93.5 | – | – | 95.8 | 72.2

O=C(/C=C/c1cccc(S(=O)(=O)Nc2ccccc2)c1)NO [Belinostat]
normalised viability [%]
Settings | 3 nM | 10 nM | 30 nM | 100 nM | 1000 nM | 10000 nM
BT-549 | – | 108 | – | – | 67.8 | 13.1
CAL-51 | 101 | – | 103 | 115 | – | –
CAL-85-1 | 95.7 | – | 79.5 | 86.8 | – | –
CAL-148 | 90.7 | – | 97.2 | 81.7 | – | –
DU-4475 | 99.9 | – | 106 | 98.7 | – | –
HCC1143 | – | 99.4 | – | – | 54 | 12.9
HCC1599 | – | 90 | – | – | 33.2 | 15.4
HCC1937 | – | 46.4 | – | – | 41.4 | 15.1
HDQ-P1 | 90.4 | – | 90.8 | 72.5 | – | –
Hs578T | – | 114 | – | – | 74.7 | 7.02
MDA-MB-436 | – | 116 | – | – | 38.8 | 17.4
MDA-MB-453 | 90.7 | – | 82.5 | 64.6 | – | –
MDA-MB-468 | – | 112 | – | – | 66.9 | 16.3
MFM-223 | – | 87.8 | – | – | 37.2 | 11.1
SK-BR-3 | – | 86.9 | – | – | 21.6 | 3.92

COc1cc(OC2CCN(C)CC2)ccc1Nc1ncc2c(n1)n(C1CCCC1)c(=O)n2C [AZ 3146]
normalised viability [%]
Settings | 3 nM | 10 nM | 30 nM | 100 nM | 1000 nM | 10000 nM
BT-549 | – | 75.4 | – | – | 89.5 | 62
CAL-51 | 97.5 | – | 88.7 | 87.8 | – | –
CAL-85-1 | 111 | – | 109 | 102 | – | –
CAL-148 | 111 | – | 102 | 115 | – | –
DU-4475 | 111 | – | 90 | 100 | – | –
HCC1143 | – | 132 | – | – | 126 | 95.3
HCC1599 | – | 107 | – | – | 121 | 111
HCC1937 | – | 124 | – | – | 98 | 92
HDQ-P1 | 80.8 | – | 100 | 118 | – | –
Hs578T | – | 111 | – | – | 109 | 80.1
MDA-MB-436 | – | 102 | – | – | 94.4 | 85.6
MDA-MB-453 | 96 | – | 97.7 | 85.3 | – | –
MDA-MB-468 | – | 109 | – | – | 103 | 53.3
MFM-223 | – | 102 | – | – | 102 | 84.4
SK-BR-3 | – | 104 | – | – | 86.8 | 74.5

CN(C)CCOc1ccc(/C(=C(/CCCl)c2ccccc2)c2ccccc2)cc1 [Toremifene]
normalised viability [%]
Settings | 3 nM | 10 nM | 30 nM | 100 nM | 1000 nM | 10000 nM
BT-549 | – | 106 | – | – | 113 | 88.1
CAL-51 | 107 | – | 98.4 | 110 | – | –
CAL-85-1 | 99.2 | – | 92.9 | 95.8 | – | –
CAL-148 | 94 | – | 97.6 | 108 | – | –
DU-4475 | 110 | – | 98.6 | 99.4 | – | –
HCC1143 | – | 92.5 | – | – | 97.3 | 102
HCC1599 | – | 127 | – | – | 97.5 | 89.6
HCC1937 | – | 129 | – | – | 93.1 | 114
HDQ-P1 | 108 | – | 109 | 113 | – | –
Hs578T | – | 122 | – | – | 109 | 94.6
MDA-MB-436 | – | 99 | – | – | 96.3 | 71.1
MDA-MB-453 | 126 | – | 91.4 | 112 | – | –
MDA-MB-468 | – | 104 | – | – | 109 | 17.9
MFM-223 | – | 98.1 | – | – | 96.1 | 71.8
SK-BR-3 | – | 113 | – | – | 107 | 91.4

Cc1[nH]c2ccccc2c1CCNCc1ccc(/C=C/C(=O)NO)cc1 [Panobinostat]
normalised viability [%]
Settings | 0.3 nM | 1 nM | 3 nM | 10 nM | 100 nM | 1000 nM
BT-549 | – | 97.7 | – | – | 68.7 | 14.7
CAL-51 | 113 | – | 111 | 97.2 | – | –
CAL-85-1 | 98 | – | 88.3 | 81.4 | – | –
CAL-148 | 96.5 | – | 104 | 59.4 | – | –
DU-4475 | 112 | – | 92.4 | 81.6 | – | –
HCC1143 | – | 102 | – | – | 20.7 | 12.2
HCC1599 | – | 99.7 | – | – | 23 | 16.3
HCC1937 | – | 110 | – | – | 26.2 | 15.1
HDQ-P1 | 120 | – | 115 | 93.1 | – | –
Hs578T | – | 152 | – | – | 13.8 | 5.54
MDA-MB-436 | – | 110 | – | – | 59.1 | 17
MDA-MB-453 | 121 | – | 64.3 | 22.7 | – | –
MDA-MB-468 | – | 108 | – | – | 52.2 | 16.7
MFM-223 | – | 102 | – | – | 20.2 | 14.8
SK-BR-3 | – | 96.9 | – | – | 5.41 | 3.54
